Measurements reported in ChEMBL document CHEMBL1155991, “Discovery of isoxazole voltage gated sodium channel blockers for treatment of chronic pain” (Bioorg Med Chem Lett, 2009).

How the values were obtained:
hERG (KCNH2) = hERG (KCNH2) (Homo sapiens, UniProt Q12809); experiment: (§1) Displacement of [35S]MK-0499 from human ERG expressed in HEK293 cells at 10 uM […]; type: cell-based; details: HEK293 cells expressing human ERG, probe [35S]MK-0499
[1] = target: T1, Sodium channel protein type 9 subunit alpha (Homo sapiens, UniProt Q15858); experiment: Inhibition of human Nav1.7 channel expressed in HEK293 cells by FRET assay; type: cell-based
Target sequence in this assay (Q15858 whole entry): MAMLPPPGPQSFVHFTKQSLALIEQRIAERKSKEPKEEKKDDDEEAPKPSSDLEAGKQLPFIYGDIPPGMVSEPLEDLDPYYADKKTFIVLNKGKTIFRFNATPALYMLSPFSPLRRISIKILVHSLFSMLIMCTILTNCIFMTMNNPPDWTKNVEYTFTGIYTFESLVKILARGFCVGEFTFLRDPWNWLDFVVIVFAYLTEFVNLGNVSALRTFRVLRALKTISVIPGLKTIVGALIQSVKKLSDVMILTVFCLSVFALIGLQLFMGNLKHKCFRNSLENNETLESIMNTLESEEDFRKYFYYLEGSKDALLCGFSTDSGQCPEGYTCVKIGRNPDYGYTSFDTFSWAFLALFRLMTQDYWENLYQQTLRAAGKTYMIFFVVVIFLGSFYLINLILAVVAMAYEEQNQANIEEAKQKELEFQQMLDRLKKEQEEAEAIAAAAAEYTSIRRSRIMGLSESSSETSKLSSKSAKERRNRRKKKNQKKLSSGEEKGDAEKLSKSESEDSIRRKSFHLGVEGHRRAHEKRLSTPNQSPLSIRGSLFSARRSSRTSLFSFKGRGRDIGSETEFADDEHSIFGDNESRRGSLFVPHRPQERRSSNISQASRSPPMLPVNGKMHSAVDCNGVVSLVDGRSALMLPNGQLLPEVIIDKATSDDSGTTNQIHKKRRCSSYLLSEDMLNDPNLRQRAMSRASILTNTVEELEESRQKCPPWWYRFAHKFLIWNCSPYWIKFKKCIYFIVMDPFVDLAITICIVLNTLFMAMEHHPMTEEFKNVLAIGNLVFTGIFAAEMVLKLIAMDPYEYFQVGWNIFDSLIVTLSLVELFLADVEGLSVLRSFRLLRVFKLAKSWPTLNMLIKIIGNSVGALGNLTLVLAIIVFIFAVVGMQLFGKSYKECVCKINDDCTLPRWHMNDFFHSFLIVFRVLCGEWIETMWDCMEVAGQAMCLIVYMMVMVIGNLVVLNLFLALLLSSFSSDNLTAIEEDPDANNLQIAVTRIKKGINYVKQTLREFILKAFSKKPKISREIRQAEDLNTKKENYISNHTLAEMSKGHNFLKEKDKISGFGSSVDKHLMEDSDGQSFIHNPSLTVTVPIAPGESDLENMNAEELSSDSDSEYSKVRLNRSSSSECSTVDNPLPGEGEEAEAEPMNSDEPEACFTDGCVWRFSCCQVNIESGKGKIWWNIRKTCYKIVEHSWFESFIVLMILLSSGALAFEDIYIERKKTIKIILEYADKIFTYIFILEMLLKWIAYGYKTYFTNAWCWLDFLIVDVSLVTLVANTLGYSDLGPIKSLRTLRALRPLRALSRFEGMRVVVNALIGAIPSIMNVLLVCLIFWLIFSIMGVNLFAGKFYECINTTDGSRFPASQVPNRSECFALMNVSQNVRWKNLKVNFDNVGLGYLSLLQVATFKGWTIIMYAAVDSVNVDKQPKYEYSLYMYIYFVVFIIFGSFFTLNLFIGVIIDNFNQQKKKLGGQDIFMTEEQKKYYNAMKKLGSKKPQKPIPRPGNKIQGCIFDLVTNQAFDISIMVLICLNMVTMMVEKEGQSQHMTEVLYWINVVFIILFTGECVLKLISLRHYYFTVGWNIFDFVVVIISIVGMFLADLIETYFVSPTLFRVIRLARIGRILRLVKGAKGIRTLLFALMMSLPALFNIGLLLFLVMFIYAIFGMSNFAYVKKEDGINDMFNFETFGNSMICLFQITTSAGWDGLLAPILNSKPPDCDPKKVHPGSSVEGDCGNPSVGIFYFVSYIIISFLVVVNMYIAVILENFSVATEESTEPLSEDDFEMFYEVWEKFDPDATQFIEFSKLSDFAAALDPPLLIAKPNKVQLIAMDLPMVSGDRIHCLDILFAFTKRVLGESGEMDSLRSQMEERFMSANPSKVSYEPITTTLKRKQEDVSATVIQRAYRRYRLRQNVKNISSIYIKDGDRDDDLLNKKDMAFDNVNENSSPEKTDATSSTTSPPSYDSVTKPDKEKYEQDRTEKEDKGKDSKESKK

[2] = Half life in Sprague-Dawley rat at 1 mg/kg, iv or 3 mg/kg, po; type: ADME, organism-based; details: in vivo
[3] = Plasma clearance in Sprague-Dawley rat at 1 mg/kg, iv or 3 mg/kg, po; type: ADME, organism-based
[4] = Oral bioavailability in Sprague-Dawley rat at 3 mg/kg; type: ADME, organism-based; details: in vivo
[5] = target: T1, Sodium channel protein type 9 subunit alpha; experiment: Inhibition of human Nav1.7 channel expressed in HEK293 cells at 1 uM by FRET assay; type: cell-based
Target sequence in this assay (Q15858 whole entry, looked up): as the sequence (Q15858 whole entry) above

Rattus norvegicus [6] = experiment: Analgesic activity in SNL rat neuropathic pain model assessed as reversal of allodynia at 10 mg/kg, po after 3 hrs; type: functional
Rattus norvegicus [7] = experiment: Analgesic activity in SNL rat neuropathic pain model assessed as reversal of allodynia at 10 mg/kg, po after 2 hrs; type: functional
Rattus norvegicus [8] = experiment: Analgesic activity in SNL rat neuropathic pain model assessed as reversal of allodynia at 10 mg/kg, po after 4 hrs; type: functional
[9] = target: Voltage-gated inwardly rectifying potassium channel KCNH2 (Homo sapiens, UniProt Q12809); experiment: as §1; type: cell-based; details: hek293, 10 µM, 10 µM
Sequence of Voltage-gated inwardly rectifying potassium channel KCNH2 (Q12809 whole entry): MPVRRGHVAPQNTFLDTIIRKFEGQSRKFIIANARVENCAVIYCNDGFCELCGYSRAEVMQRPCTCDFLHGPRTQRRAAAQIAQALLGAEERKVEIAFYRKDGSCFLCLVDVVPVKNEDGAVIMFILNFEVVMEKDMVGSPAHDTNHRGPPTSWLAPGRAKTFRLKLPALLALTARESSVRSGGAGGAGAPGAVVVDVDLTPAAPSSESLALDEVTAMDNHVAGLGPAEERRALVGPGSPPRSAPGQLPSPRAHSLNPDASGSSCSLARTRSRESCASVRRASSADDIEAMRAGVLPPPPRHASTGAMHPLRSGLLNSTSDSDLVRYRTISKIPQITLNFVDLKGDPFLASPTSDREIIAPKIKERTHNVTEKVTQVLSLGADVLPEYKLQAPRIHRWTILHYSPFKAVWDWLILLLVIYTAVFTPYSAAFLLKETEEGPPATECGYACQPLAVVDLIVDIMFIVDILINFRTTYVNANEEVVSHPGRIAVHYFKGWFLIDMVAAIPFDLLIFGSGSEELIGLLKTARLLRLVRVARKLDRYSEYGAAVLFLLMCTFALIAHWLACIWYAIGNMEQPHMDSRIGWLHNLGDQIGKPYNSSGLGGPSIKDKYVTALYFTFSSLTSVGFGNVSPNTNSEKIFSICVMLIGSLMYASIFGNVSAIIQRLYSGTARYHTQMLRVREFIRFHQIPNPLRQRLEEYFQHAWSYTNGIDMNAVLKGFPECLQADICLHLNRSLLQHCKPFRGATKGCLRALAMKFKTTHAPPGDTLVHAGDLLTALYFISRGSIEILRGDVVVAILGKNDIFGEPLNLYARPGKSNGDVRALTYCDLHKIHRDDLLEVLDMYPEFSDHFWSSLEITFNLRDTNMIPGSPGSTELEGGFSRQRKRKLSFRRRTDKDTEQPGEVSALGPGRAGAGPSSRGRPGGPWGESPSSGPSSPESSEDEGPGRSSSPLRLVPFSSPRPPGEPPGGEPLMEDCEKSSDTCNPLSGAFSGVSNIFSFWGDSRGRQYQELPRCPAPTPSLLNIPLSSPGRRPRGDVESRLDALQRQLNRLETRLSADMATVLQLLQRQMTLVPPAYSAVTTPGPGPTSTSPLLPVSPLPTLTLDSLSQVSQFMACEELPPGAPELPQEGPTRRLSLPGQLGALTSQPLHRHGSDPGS

Sequence of hERG (KCNH2) (Q12809 whole entry): as above

| SMILES | inhibition at 10 µM (hERG (KCNH2)) | IC50 [1] | other results |
| --- | --- | --- | --- |
| O=C(NC1(c2ccccc2)CCC1)[C@@H]1CCC[C@H]1c1cc(-c2cccc(OC(F)(F)F)c2)on1 | 55% | 370 nM | half-life [2]: 2.6 h; clearance [3]: 89 mL/min/kg; bioavailability [4]: 46% |
| O=C(NC1(c2ccccc2)CCC1)[C@@H]1CCC[C@H]1c1cc(-c2c(O)cccc2C(F)(F)F)on1 |  |  | inhibition [5]: 1% |
| O=C(NC1(c2ccccc2)CCC1)[C@@H]1CCC[C@H]1c1cc(-c2cccc(C(F)(F)F)n2)on1 | 22% | 220 nM | half-life [2]: 1.51 h; clearance [3]: 135 mL/min/kg; bioavailability [4]: 36% |
| O=C(NC1(c2cccc(F)c2)CCC1)[C@@H]1CCC[C@H]1c1cc(-c2ccccc2)on1 | 64% | 110 nM |  |
| O=C(NC1(c2ccccc2)CCC1)[C@@H]1CCC[C@H]1c1cc(-c2cccc(=O)[nH]2)on1 |  |  | inhibition [5]: 0% |
| O=C(NC1(c2ccccc2)CCC1)[C@@H]1CCC[C@H]1c1cc(-c2ccc(O)cc2)on1 | 15% | 130 nM |  |
| O=C(NC1(c2ccccc2)CCC1)[C@@H]1CCC[C@H]1c1cc(-c2ccccc2O)on1 | 54% |  | inhibition [5]: 44% |
| O=C(NC1(c2ccccc2)CCC1)[C@@H]1CCC[C@H]1c1cc(-c2ccccc2C(F)(F)F)on1 | 91% | 740 nM |  |
| COC1CC(NC(=O)[C@@H]2CCC[C@H]2c2cc(-c3ccccc3)on2)(c2ccccc2)C1 (some centres undefined) | 51% | 380 nM |  |
| O=C(NC1(c2ccccc2)CCC1)[C@@H]1CCC[C@H]1c1cc(-c2ccc(C(F)(F)F)cc2O)on1 | 72% | 300 nM |  |
| O=C(NC1(c2ccccc2)CCC1)[C@@H]1CCC[C@H]1c1cc(-c2ccc(O)c(C(F)(F)F)c2)on1 |  |  | inhibition [5]: 0% |
| O=C(NC1(c2ccccc2)CCCC1)[C@@H]1CCC[C@H]1c1cc(-c2ccccc2)on1 | 85% | 220 nM |  |
| O=C(NC1(c2ccccc2)CCCCC1)[C@@H]1CCC[C@H]1c1cc(-c2ccccc2)on1 |  | 580 nM |  |
| O=C(NC1(c2ccccc2)CCC1)[C@@H]1CCC[C@H]1c1cc(-c2cccc(C(F)(F)F)c2O)on1 (stereo in doubt; 30) | 45% | 340 nM |  |
| O=C(NC1(c2ccccc2)CCC1)[C@@H]1CCC[C@H]1c1cc(-c2ccccc2Cl)on1 | 76% | 180 nM |  |
| COc1ccccc1-c1cc([C@@H]2CCC[C@H]2C(=O)NC2(c3ccccc3)CCC2)no1 | 54% | 390 nM |  |
| O=C(NCc1ccccc1)[C@@H]1CCC[C@H]1c1cc(-c2ccccc2)on1 | 35% |  | inhibition [5]: 37% |
| O=C(NC1(c2ccccc2)CCC1)[C@@H]1CCC[C@H]1c1cc(-c2cccc(C(F)(F)F)c2O)on1 (stereo in doubt; 30b) |  | > 10000 nM |  |
| O=C(NC1(c2cccc(C(F)(F)F)c2)CCC1)[C@@H]1CCC[C@H]1c1cc(-c2ccccc2)on1 | 89% | 590 nM |  |

| SMILES | inhibition at 10 µM (hERG (KCNH2)) | IC50 [1] | other results |
| --- | --- | --- | --- |
| O=C(NC1(c2ccccc2)CCC1)[C@@H]1CCC[C@H]1c1cc(-c2cc(C(F)(F)F)ccc2O)on1 |  |  | inhibition [5]: 1% |
| COc1cccc(-c2cc([C@@H]3CCC[C@H]3C(=O)NC3(c4ccccc4)CCC3)no2)n1 | 54% | 190 nM |  |
| COc1ccc(-c2cc([C@@H]3CCC[C@H]3C(=O)NC3(c4ccccc4)CCC3)no2)cc1 | 44% | 180 nM |  |
| COc1cccc(-c2cc([C@@H]3CCC[C@H]3C(=O)NC3(c4ccccc4)CCC3)no2)c1 | 62% | 20 nM |  |
| O=C(NC1(c2ccccc2)CCC1)[C@@H]1CCC[C@H]1c1cc(-c2ccccc2)on1 | 37% | 120 nM |  |
| O=C(NC1(c2ccccc2)CCC1)[C@@H]1CCC[C@H]1c1cc(-c2cccc(OC(F)(F)F)c2O)on1 | 47% | 260 nM |  |
| O=C(NC1(c2ccccc2)CC(O)C1)[C@@H]1CCC[C@H]1c1cc(-c2ccccc2)on1 (some centres undefined) |  | > 5000 nM |  |
| O=C(NC1(c2ccccc2)CC(F)C1)[C@@H]1CCC[C@H]1c1cc(-c2ccccc2)on1 (stereo in doubt; 17) | 46% | 180 nM |  |
| CN(Cc1ccc(-c2ccccc2S(N)(=O)=O)cc1)C(=O)[C@@H]1CCC[C@H]1C(=O)NCc1ccc(OC(F)(F)F)cc1 |  |  | Activity (Rattus norvegicus [6]): 35%; Activity (Rattus norvegicus [7]): 30%; Activity (Rattus norvegicus [8]): 28% |
| CC(NC(=O)[C@@H]1CCC[C@H]1c1cc(-c2ccccc2)on1)c1ccccc1 (some centres undefined) | 47% | 1700 nM |  |
| O=C(NC1(c2ccccc2)CCC1)[C@@H]1CCC[C@H]1c1cc(-c2cccc(O)c2)on1 | 64% | 210 nM |  |
| CC1(c2ccccc2)CC([C@@H]2CCC[C@H]2C(=O)NC2(c3ccccc3)CCC2)=NO1 (some centres undefined) |  |  | inhibition [5]: 8% |
| O=C(NC1(c2ccccc2)CC(F)C1)[C@@H]1CCC[C@H]1c1cc(-c2ccccc2)on1 (stereo in doubt; 18) |  | 160 nM | inhibition (INH) [9]: 59% |
| O=C(NC1(c2ccccc2)CC(F)(F)C1)[C@@H]1CCC[C@H]1c1cc(-c2ccccc2)on1 | 27% |  | inhibition [5]: 41% |
| O=C(NC1(c2ccccc2)CC1)[C@@H]1CCC[C@H]1c1cc(-c2ccccc2)on1 | 47% | 440 nM |  |
| O=C(NC1(c2ccccc2F)CCC1)[C@@H]1CCC[C@H]1c1cc(-c2ccccc2)on1 | 40% | 450 nM |  |
| CC(C)(NC(=O)[C@@H]1CCC[C@H]1c1cc(-c2ccccc2)on1)c1ccccc1 | 45% | 430 nM |  |
| O=C(NC1(c2ccc(F)cc2)CCC1)[C@@H]1CCC[C@H]1c1cc(-c2ccccc2)on1 | 81% | 84 nM |  |
| O=C(NC1(c2ccccc2)CCC1)[C@@H]1CCC[C@H]1c1cc(-c2cccc(C(F)(F)F)c2O)on1 (stereo in doubt; 30a) |  | 430 nM |  |
